Assay results taken from patent US20250353873A1, “COMPOUNDS AND METHODS FOR MODULATING APOE EXPRESSION” (Ionis Pharmaceuticals, Inc., priority 2024, published 2025).
Strand notation (5' to 3'): a small letter for the sugar, then the base; units joined by * are phosphorothioate-linked, units joined directly phosphodiester-linked; [ ] holds rarer units or linkages, { } end groups; capitals alone tell only the bases. [ms] = mesyl phosphoramidate linkage; e = 2'-O-(2-methoxyethyl) (MOE); k = constrained ethyl (cEt); [5mC] = 5-methylcytosine; d = 2'-deoxy (DNA)

Key:
human APOE RNA [1] = experiment: Activity in APOE C57BL/6NTac-Apoeem7250 knock-in mice, single ICV bolus, 20 weeks (Example 13); format: in vivo; conditions: single ICV bolus 300 μg, 20 weeks post treatment, normalized to mouse Ppia
How it was run: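 Knock-in mice (n=4) given a single ICV bolus of 300 μg oligonucleotide, PBS as control. After 20 weeks, human APOE RNA in cortex and spinal cord measured by RT-qPCR, normalized to mouse Ppia, expressed as % of PBS-treated animals.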

human APOE RNA [2] = experiment: Activity in APOE C57BL/6NTac-Apoeem7250 knock-in mice, single ICV bolus, 4 weeks (Example 10); format: in vivo; conditions: single ICV bolus 300 μg, 4 weeks post treatment, normalized to mouse Ppia
How it was run: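 Knock-in mice (2–4 per group) received one 300 μg ICV bolus of oligonucleotide or PBS. After four weeks, human APOE RNA in cortex and spinal cord measured by RT-qPCR (primer probe set RTS3073), normalized to mouse Ppia, expressed as % of PBS controls.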

human APOE RNA [3] = experiment: Activity in APOE C57BL/6NTac-Apoeem7250 knock-in mice, single ICV bolus, 16 weeks (Example 12); format: in vivo; conditions: single ICV bolus 300 μg, 16 weeks post treatment, normalized to mouse Ppia
How it was run: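 Knock-in mice (3-4 per group) received one ICV bolus of 300 μg oligonucleotide, PBS as control. After 16 weeks, human APOE RNA in cortex and spinal cord measured by RT-qPCR, normalized to mouse Ppia, and reported as % of PBS control.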

human APOE RNA [4] = experiment: Activity in APOE C57BL/6NTac-Apoeem7250 knock-in mice, single ICV bolus, 8 weeks (Example 11); format: in vivo; conditions: single ICV bolus 300 μg, 8 weeks post treatment, normalized to mouse Ppia
How it was run: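 Human APOE knock-in C57BL/6NTac mice given one ICV bolus of 300 μg oligonucleotide; PBS-dosed group as control. At 8 weeks, cortex and spinal cord RNA measured by qRT-PCR (human probe RTS3073), normalized to mouse Ppia, expressed as % of PBS control.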

human APOE RNA [5] = experiment: Dose-dependent inhibition of human APOE RNA in HepG2 cells, electroporation, 50,000 cells per well, RT-PCR normalized to GAPDH (Example 4, Tables 8-10); format: cell-based; conditions: HepG2, electroporation, 16-hour treatment
How it was run: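 HepG2 cells, 50,000 per well, electroporated with modified oligonucleotide at various concentrations. APOE RNA quantified by RT-PCR with human primer probe set RTS3073, normalized to GAPDH. Values are percent APOE RNA relative to untreated control cells.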

Substance | APOE RNA (% control) Cortex (human APOE RNA [1]) | APOE RNA (% control) Spinal Cord (human APOE RNA [1]) | APOE RNA (% control) Cortex (human APOE RNA [2]) | APOE RNA (% control) Spinal Cord (human APOE RNA [2]) | APOE RNA (% control) Cortex (human APOE RNA [3]) | APOE RNA (% control) Spinal Cord (human APOE RNA [3]) | APOE RNA (% control) Cortex (human APOE RNA [4]) | APOE RNA (% control) Spinal Cord (human APOE RNA [4]) | APOE RNA (% UTC) (human APOE RNA [5]; 5 nM) | APOE RNA (% UTC) (human APOE RNA [5]; 13 nM) | APOE RNA (% UTC) (human APOE RNA [5]; 33 nM) | APOE RNA (% UTC) (human APOE RNA [5]; 82 nM) | APOE RNA (% UTC) (human APOE RNA [5]; 205 nM) | APOE RNA (% UTC) (human APOE RNA [5]; 512 nM) | APOE RNA (% UTC) (human APOE RNA [5]; 1,280 nM) | APOE RNA (% UTC) (human APOE RNA [5]; 3,200 nM) | APOE RNA (% UTC) (human APOE RNA [5]; 8,000 nM) | APOE RNA (% UTC) (human APOE RNA [5]; 20,000 nM) | IC50 (human APOE RNA [5])
1785600 (k[5mC]*kT*kT*dG[ms]dG[ms]dT[ms]dG*dA*dA*dT*d[5mC]*dT[ms]dT[ms]dT[ms]dA*dT*kT*kA*dA[ms]kA; antisense) [Compound 1785600] | 60 % control | 33 % control | 46 % control | 51 % control | 39 % control | 30 % control | 36 % control | 26 % control | – | – | – | – | – | – | – | – | – | – | –
1778120 (eA*e[5mC]eTeTeGeG*dT*dG[ms]dA[ms]dA*dT*d[5mC]*dT*dT*dT*dA[ms]kTeT*eA*eA; antisense) [Compound 1778120] | 78 % control | 44 % control | 47 % control | 58 % control | 75 % control | 46 % control | 57 % control | 24 % control | – | – | – | – | – | – | – | – | – | – | –
1778126 (eA*e[5mC]eTeTkG*kG*dT*dG[ms]dA[ms]dA*dT*d[5mC]*dT*dT*dT*dA[ms]kT*eT*eA*eA; antisense) [Compound 1778126] | 52 % control | 35 % control | 41 % control | 72 % control | 37 % control | 22 % control | 23 % control | 20 % control | – | – | – | – | – | – | – | – | – | – | –
1778113 (eA*e[5mC]eTeTkG*kG*dT*dG[ms]dA[ms]dA*dT*d[5mC]*dT*dT*dT*dA[ms]eT*eT*eA*eA; antisense) [Compound 1778113] | 61 % control | 24 % control | 48 % control | 88 % control | 46 % control | 27 % control | 53 % control | 28 % control | – | – | – | – | – | – | – | – | – | – | –
1757572 (eA*e[5mC]eTeT*kG*kG*dT*dG[ms]dA[ms]dA[ms]dT*d[5mC]*dT*dT*dT*dA[ms]eT*eT*eA*eA; antisense) [Compound 1757572] | 51 % control | 69 % control | 50 % control | 38 % control | – | – | – | – | 114 % UTC | 95 % UTC | 107 % UTC | 96 % UTC | 83 % UTC | 67 % UTC | 66 % UTC | 51 % UTC | 26 % UTC | 10 % UTC | 2350 nM
1785619 (k[5mC]*dT[ms]dT[ms]kG*dG[ms]kT*dG*dA[ms]dA[ms]dT*d[5mC]*dT*dT*dT*dA[ms]dT*kT*kA*dA[ms]kA) [Compound 1785619] | 58 % control | 59 % control | 41 % control | 41 % control | 40 % control | 41 % control | 40 % control | 27 % control | – | – | – | – | – | – | – | – | – | – | –
1785616 (k[5mC]*dT[ms]dT[ms]kG*dG[ms]kT*dG[ms]dA[ms]dA[ms]dT*d[5mC]*dT*dT*dT*dA*dT[ms]kT*kA*dA[ms]kA; antisense) [Compound 1785616] | 77 % control | 57 % control | 47 % control | 66 % control | 47 % control | 34 % control | 47 % control | 27 % control | – | – | – | – | – | – | – | – | – | – | –
1778119 (eA*e[5mC]eTeTeG*eG*dT*dG[ms]dA[ms]dA*dT*d[5mC]*dT*dT*dT*dA[ms]kTeT*eA*eA; antisense) [Compound 1778119] | 84 % control | 51 % control | 45 % control | 56 % control | 62 % control | 38 % control | 52 % control | 27 % control | – | – | – | – | – | – | – | – | – | – | –
1766559 (eT*eTeGeGeT*dG[ms]dA[ms]dA[ms]dT*d[5mC]*dT*dT*dT[ms]dA[ms]dT*kTkAeA*eA*e[5mC]; antisense) [Compound 1766559] | 100 % control | 74 % control | 79 % control | 81 % control | – | – | – | – | 166 % UTC | – | 65 % UTC | 47 % UTC | 46 % UTC | 41 % UTC | 30 % UTC | 21 % UTC | 35 % UTC | 36 % UTC | 340 nM
1778117 (eA*e[5mC]eTeTeG*eG*dT*dG[ms]dA[ms]dA*dT*d[5mC]*dT*dT*dT*dA[ms]kT*eT*eA*eA; antisense) [Compound 1778117] | 72 % control | 36 % control | 46 % control | 114 % control | 65 % control | 36 % control | 49 % control | 28 % control | – | – | – | – | – | – | – | – | – | – | –
